Experimental data taken from patent publication US10421722B2, “Sulfur-containing compounds targeting vesicular acetylcholine transporter” (Washington University, priority 2016, dated 2019).
Where two headings read alike, the source gives them in different places.

How the values were obtained:
[1] = target: σ2 receptor (Rattus norvegicus (Rat), UniProt Q5U3Y7); experiment: σ2 receptor binding, [3H]DTG; conditions: for Ki: oxalate form, homogenates of rat liver; for Selectivity ratio VAChT/σ2: ratio of Ki values
Chain of σ2 receptor (Q5U3Y7 whole entry): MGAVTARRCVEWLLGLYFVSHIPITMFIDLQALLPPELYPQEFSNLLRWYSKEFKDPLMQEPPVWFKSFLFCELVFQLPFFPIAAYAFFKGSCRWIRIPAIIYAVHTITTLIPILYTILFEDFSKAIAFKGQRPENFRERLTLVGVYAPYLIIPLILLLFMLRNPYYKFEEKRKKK
Description: In vitro binding studies were performed to measure the affinities to the VAChT and σ1 and σ2 receptors. […]
(§1) Briefly, to measure the σ1 receptor binding affinity, we use guinea pig brain membrane homogenates (˜300 μg protein) tissues as the receptor resource and ˜5 nM [^3H](+)-Pentazocine (34.9 Ci/mmol, Perkin Elmer, Boston, Mass.) as the radioligand. The mixture was incubated in 96-well plates for 90 min at room temperature. Nonspecific binding was determined from samples containing 10 μM of nonradioactive Haloperidol. After 90 min, the mixture was transferred into a 96-well fiberglass filter plate (Millipore, Billerica, Mass.) presoaked with 100 μL of 50 mM Tris-HCl buffer at pH 8.0 for 60 min, followed by addition of 150 μL of ice-cold wash buffer (10 mM Tris-HCl, 150 mM NaCl, pH 7.4). The harvested samples were filtered rapidly and washed with 3×200 μL portions of ice-cold wash buffer, and the filterers were counted by a Wallac 1450 MicroBeta liquid scintillation counter (Perkin-Elmer, Boston, Mass.). […] The mixture was incubated for 120 min at room temperature. Nonspecific binding was determined from samples containing 10 μM of nonradioactive Haloperidol. All other procedures were similar to those described for the σ1 receptor binding assay above. Data from the competitive binding experiments were modeled using nonlinear regression analysis to determine the concentration that inhibits 50% of the specific binding of the radioligand. Competitive binding curves were best fit to a one-site fit and gave pseudo-Hill coefficients of 0.6-1.0. Ki values were calculated using the method of Cheng and Prusoff,^35 then presented as the mean±SEM.

[2] = target: human VAChT (Homo sapiens (Human), UniProt Q16572); experiment: VAChT binding, competition against [3H]Vesamicol; conditions: oxalate form, expressed human VAChT, mean ± SEM
Chain of human VAChT (Q16572 whole entry): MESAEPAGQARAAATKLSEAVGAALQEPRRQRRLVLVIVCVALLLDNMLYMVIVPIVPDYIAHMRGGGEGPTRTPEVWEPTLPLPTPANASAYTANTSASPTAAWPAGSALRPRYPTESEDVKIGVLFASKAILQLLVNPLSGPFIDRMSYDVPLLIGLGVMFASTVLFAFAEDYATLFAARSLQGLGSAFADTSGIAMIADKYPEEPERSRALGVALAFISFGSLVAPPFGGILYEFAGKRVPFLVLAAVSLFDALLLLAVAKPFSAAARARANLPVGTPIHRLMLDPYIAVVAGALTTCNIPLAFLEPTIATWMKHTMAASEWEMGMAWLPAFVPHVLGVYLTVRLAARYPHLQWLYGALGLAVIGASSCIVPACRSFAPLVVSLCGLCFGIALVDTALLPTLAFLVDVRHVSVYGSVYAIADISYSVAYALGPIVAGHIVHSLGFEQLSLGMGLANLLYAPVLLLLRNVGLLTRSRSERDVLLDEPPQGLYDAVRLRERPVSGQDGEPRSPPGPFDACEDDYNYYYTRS
Description: (§2) In vitro binding studies were performed to measure the affinities to the VAChT and σ1 and σ2 receptors. VAChT binding was assayed using membrane homogenate from PC12 cells which overexpress human VAChT.^8 The σ1 and σ2 binding affinities were assayed in […], respectively.
The test compounds were assayed in increments of 10-fold from 0.1 to 10,000 nM concentration. The surfaces of containers were pre-coated with Sigmacote (Sigma-Aldrich, Mo.). Samples containing 200 μg postnuclear supernatant in 200 μL of 110 mM potassium tartrate, 20 mM HEPES (pH 7.4 with KOH), 1 mM dithiothreitol, and 0.02% sodium azide were incubated at 22° C. for 24 h. A volume of 90 μL was filtered in duplicate through GF/F glass fiber filters coated with polyethylenimine and washed. Filter-bound radioactivity was determined by liquid scintillation spectrometry for 10 min per sample. Averaged data were fitted by regression with a rectangular hyperbola to estimate Ki value. All the compounds were independently assayed at least two times.

[3] = target: σ1 receptor (Cavia porcellus (Guinea pig), UniProt Q60492); experiment: σ1 receptor binding, [3H](+)-Pentazocine; conditions: for Ki: oxalate form, homogenates of guinea pig brain, mean ± SEM; for Selectivity ratio VAChT/σ1: ratio of Ki values
Chain of σ1 receptor (Q60492 whole entry): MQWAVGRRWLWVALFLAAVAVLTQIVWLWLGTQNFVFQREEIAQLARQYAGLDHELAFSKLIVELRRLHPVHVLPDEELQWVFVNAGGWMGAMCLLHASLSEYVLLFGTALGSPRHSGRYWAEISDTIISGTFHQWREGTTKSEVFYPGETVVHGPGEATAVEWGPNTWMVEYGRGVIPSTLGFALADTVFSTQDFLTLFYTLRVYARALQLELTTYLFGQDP
Description: as §2, §1

[4] = Table 1, read-out: Ki (nM) for VAChT
[5] = Table 2, read-out: Ki (nM) VAChT

Row | Ki [1] | Selectivity ratio VAChT/σ2 [1] | Ki [2, 4] | Ki [3] | Selectivity ratio VAChT/σ1 [3] | Ki [2, 5] | Ki ([2]; Table 2, listed as (−)-[18F]9a, read-out: Ki (nM) VAChT) | Structure (SMILES)
1 | > 1000 nM | >185 | 5.4 nM | 16.5 ± 2.1 nM | 3.1 |  |  | CS(=O)(=O)c1ccc(C(=O)C2CCN(C3Cc4ccccc4CC3O)CC2)cc1 (racemic) [Compound 2, (1-(3-Hydroxy-1,2,3,4-tetrahydronaphthalen-2-yl)piperidin-4-yl)(4 (methylsulfonyl)phenyl)methanone]
2 | > 1000 nM | >416 | 2.4 nM | 17.2 ± 4 nM | 7.2 |  |  | CSc1ccc(C(=O)C2CCN(C3Cc4ccccc4CC3O)CC2)cc1 (racemic) [Compound 3, (1-(3-Hydroxy-1,2,3,4-tetrahydronaphthalen-2-yl)piperidin-4-yl)(4-(methylthio)phenyl)methanone]
3 | > 1000 nM | >416 | 2.4 nM | 16.7 ± 2.1 nM | 7.0 |  |  | O=C(c1ccc(SCCF)cc1)C1CCN(C2Cc3ccccc3CC2O)CC1 (racemic) [Compound 9a, (4-((2-Fluoroethyl)thio)phenyl)(1-(3-hydroxy-1,2,3,4-tetrahydronaphthalen-2-yl)piperidin-4-yl)methanone]
4 | > 1000 nM | >434 | 2.3 nM | 40.8 ± 4.1 nM | 17.7 |  |  | O=C(c1ccc(SCCCF)cc1)C1CCN(C2Cc3ccccc3CC2O)CC1 (racemic) [Compound 9b, (4-((3-Fluoropropyl)thio)phenyl)(1-(3-hydroxy-1,2,3,4-tetrahydronaphthalen-2-yl)piperidin-4-yl)methanone]
5 | > 1000 nM | >5 |  | 18.5 ± 3.4 nM | 0.1 | 193 ± 17.8 nM |  | CS(=O)(=O)c1ccc(C(=O)C2CCN([C@@H]3Cc4ccccc4C[C@H]3O)CC2)cc1 (single isomer, unassigned) [(+)-2]
6 | > 1000 nM | >72 |  | 23.3 ± 2.9 nM | 1.7 | 13.8 ± 1.1 nM |  | CSc1ccc(C(=O)C2CCN([C@@H]3Cc4ccccc4C[C@H]3O)CC2)cc1 (single isomer, unassigned) [(+)-3]
7 | > 1000 nM | >84 |  | 14.4 ± 2 nM | 1.2 | 11.8 ± 2.7 nM |  | O=C(c1ccc(SCCF)cc1)C1CCN([C@@H]2Cc3ccccc3C[C@H]2O)CC1 (single isomer, unassigned) [(+)-9a]
8 | > 1000 nM | >50 |  | 38.6 ± 7.1 nM | 1.9 | 19.9 ± 9.2 nM |  | O=C(c1ccc(SCCCF)cc1)C1CCN([C@@H]2Cc3ccccc3C[C@H]2O)CC1 (single isomer, unassigned) [(+)-9b]
9 |  |  |  |  |  |  | 2.2 nM | O=C(c1ccc(SCCF)cc1)C1CCN([C@@H]2Cc3ccccc3C[C@H]2O)CC1 (single isomer, unassigned) [(−)-[^18F]9a]
10 |  |  | 6.3 nM |  |  |  |  | CNS(=O)(=O)c1ccc(C(=O)C2CCN(C3Cc4ccccc4CC3O)CC2)cc1 (stereo not drawn) [Compound 6a, 4-(1-(3-Hydroxy-1,2,3,4-tetrahydronaphthalen-2-yl)piperidine-4-carbonyl)-N-methylbenzenesulfon-amide]
11 |  |  | 13 nM |  |  |  |  | O=C(c1ccc(S(=O)(=O)NCCF)cc1)C1CCN(C2Cc3ccccc3CC2O)CC1 (stereo not drawn) [Compound 6b, N-(2-fluoroethyl)-4-(1-(3-hydroxy-1,2,3,4-tetrahydronaphthalen-2-yl)piperidine-4-carbonyl)benzenesulfonamide]
12 |  |  | 12.8 ± 0.7 nM |  |  |  |  | O=C(c1ccc(S(=O)(=O)CCCF)cc1)C1CCN(C2Cc3ccccc3CC2O)CC1 (stereo not drawn) [Compound 7, (4-((3-Fluoropropyl)sulfonyl)phenyl)(1-(3-hydroxy-1,2,3,4-tetrahydronaphthalen-2-yl)piperidin-4-yl)methanone]

Row | Structure (SMILES) | Ki [1] | Selectivity ratio VAChT/σ2 [1] | Ki [2, 4] | Ki [3] | Selectivity ratio VAChT/σ1 [3] | Ki [2, 5] | Ki ([2]; Table 2, listed as (−)-[18F]9a, read-out: Ki (nM) VAChT)
13 | C[S+]([O-])c1ccc(C(=O)C2CCN(C3Cc4ccccc4CC3O)CC2)cc1 (stereo not drawn) [Compound 4, (1-(3-Hydroxy-1,2,3,4-tetrahydronaphthalen-2-yl)piperidin-4-yl)(4-(methylsulfinyl)phenyl)methano-ne] |  |  | 6.5 nM |  |  |  | 
